# Results reported in patent publication US20260022142A1, “MACROCYCLIC IMMUNOMODULATORS” (Bristol-Myers Squibb Company, priority 2022, published 2026).
# Numbered stars: 1 amine (or outer) side, 2 acyl side, 3 side chain; on linkers, the order of the positions; unused ones are H or OH. Bridge positions count the residues as written; N and C are the ends. Square brackets hold non-standard residues; d marks the D form. Peptide text beside a SMILES is read from it. * marks the point of attachment. Bip = N[C@@H](Cc1ccc(-c2ccccc2)cc1)C(=O)O; X10 = O=C([C@H](Cc1cc[nH]c1)N[*:1])[*:2]; Phe(3-Me) = Cc1cccc(C[C@H](N)C(=O)O)c1; Cha = N[C@@H](CC1CCCCC1)C(=O)O; Cit = NC(=O)NCCC[C@H](N)C(=O)O; Carboxymethyl = O=C(O)C*; Orn = NCCC[C@H](N)C(=O)O; Aun = NCCCCCCCCCCC(=O)O; Dab = NCC[C@H](N)C(=O)O; Dap = NC[C@H](N)C(=O)O
# Target: T1, PD-1/PD-L1 interaction (PE-labeled human PD-L1-Ig binding to Jurkat cell line over-expressing human PD-1) (Homo sapiens, UniProt Q15116)
# T1 construct: expressed in transfected cells; host or cells: Jurkat
# T1 sequence (Q15116 25-288): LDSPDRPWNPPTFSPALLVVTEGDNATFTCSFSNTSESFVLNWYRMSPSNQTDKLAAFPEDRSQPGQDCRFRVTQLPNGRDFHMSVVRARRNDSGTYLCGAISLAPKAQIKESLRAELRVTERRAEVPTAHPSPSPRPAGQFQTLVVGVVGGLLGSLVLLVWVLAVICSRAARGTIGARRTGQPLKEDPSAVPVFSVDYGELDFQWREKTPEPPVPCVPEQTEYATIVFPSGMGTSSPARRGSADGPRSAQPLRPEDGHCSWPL
# Test: Jurkat-PD-1 Cell Binding High-Content Screening Assay (CBA)
# Format: cell-based
# Conditions: Jurkat cell line over-expressing human PD-1; PE-labeled PD-L1-Ig 20 nM final; read-out: Jurkat hPD1-PDL1 IC50
# Outline: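 Jurkat cells over-expressing human PD-1 (8×10^3 per well, DMEM/10% FCS) preincubated with compound 2 h at 37° C, then PE-labeled human PD-L1-Ig (20 nM final) added for 1 h. Cells fixed with paraformaldehyde, Hoechst-stained, and bound fluorescence quantified by high-content imaging.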
row,SMILES,IC50 [nM]
1,CC(C)C[C@H]1NC(=O)[C@H](CCCN)NC(=O)[C@H](C(C)C)NC(=O)[C@H](Cc2ccc(-c3ccccc3)cc2)NC(=O)[C@H](C(C)C)NC(=O)[C@H](Cc2c[nH]c3ccccc23)NC(=O)[C@H](CC(=O)O)NC(=O)[C@H](Cc2ccc(OCC(=O)O)cc2)NC(=O)[C@H](CN)NC(=O)CSC[C@@H](C(=O)N[C@@H](CCN)C(=O)NCCCCCCCCCCC(=O)O)NC(=O)[C@H](CCC(N)=O)NC(=O)[C@H](C(C)C)NC(=O)[C@H](CC2CCCCC2)NC(=O)[C@H](Cc2c[nH]cn2)NC1=O [Compound 2793] ({CH2CO}-[Dap]Y(Carboxymethyl)DWV[Bip]V[Orn][dL]H[Cha]VQC[Dab][Aun]-OH; thioether N-14),21.6
2,CC(C)C[C@H]1NC(=O)[C@H](CCCN)NC(=O)[C@H](C(C)C)NC(=O)[C@H](Cc2ccc(-c3ccccc3)cc2)NC(=O)[C@H](C(C)C)NC(=O)[C@H](Cc2c[nH]c3ccccc23)NC(=O)[C@H](CC(=O)O)NC(=O)[C@H](Cc2ccc(OCC(=O)O)cc2)NC(=O)[C@H](CN)NC(=O)CSC[C@@H](C(=O)N[C@@H](CCCN)C(=O)NCCCCCCCCCCC(=O)O)NC(=O)[C@H](CCC(N)=O)NC(=O)[C@H](C(C)C)NC(=O)[C@H](CC2CCCCC2)NC(=O)[C@H](Cc2c[nH]cn2)NC1=O [Compound 2794] ({CH2CO}-[Dap]Y(Carboxymethyl)DWV[Bip]V[Orn][dL]H[Cha]VQC[Orn][Aun]-OH; thioether N-14),28
3,CC(C)C[C@H]1NC(=O)[C@H](CCCN)NC(=O)[C@H](C(C)C)NC(=O)[C@H](Cc2ccc(-c3ccccc3)cc2)NC(=O)[C@H](C(C)C)NC(=O)[C@H](Cc2c[nH]c3ccccc23)NC(=O)[C@H](CC(=O)O)NC(=O)[C@H](Cc2ccc(OCC(=O)O)cc2)NC(=O)[C@H](CN)NC(=O)CSC[C@@H](C(=O)N[C@@H](CCN)C(=O)NCCCCCCCCCCC(=O)O)NC(=O)[C@@H](CCC(N)=O)NC(=O)[C@H](C(C)C)NC(=O)[C@H](CC2CCCCC2)NC(=O)[C@H](Cc2c[nH]cn2)NC1=O [Compound 2795] ({CH2CO}-[Dap]Y(Carboxymethyl)DWV[Bip]V[Orn][dL]H[Cha]V[dQ]C[Dab][Aun]-OH; thioether N-14),63.4
4,CC(C)C[C@H]1NC(=O)[C@H](CCCN)NC(=O)[C@H](C(C)C)NC(=O)[C@H](Cc2ccc(-c3ccccc3)cc2)NC(=O)[C@H](C(C)C)NC(=O)[C@H](Cc2c[nH]c3ccccc23)NC(=O)[C@H](CC(=O)O)NC(=O)[C@H](Cc2ccc(OCC(=O)O)cc2)NC(=O)[C@H](CN)NC(=O)CSC[C@@H](C(=O)N[C@@H](CCCN)C(=O)NCCCCCCCCCCC(=O)O)NC(=O)[C@@H](CCC(N)=O)NC(=O)[C@H](C(C)C)NC(=O)[C@H](CC2CCCCC2)NC(=O)[C@H](Cc2c[nH]cn2)NC1=O [Compound 2796] ({CH2CO}-[Dap]Y(Carboxymethyl)DWV[Bip]V[Orn][dL]H[Cha]V[dQ]C[Orn][Aun]-OH; thioether N-14),78.5
5,Cc1cccc(C[C@@H]2NC(=O)[C@H](CC(=O)O)NC(=O)[C@H](Cc3ccc(O)cc3)NC(=O)[C@H](CC(N)=O)NC(=O)CSC[C@@H](C(=O)N[C@@H](CCCCN)C(=O)NCCCCCCCCCCC(=O)O)NC(=O)[C@H](CN)NC(=O)[C@H](C(C)C)NC(=O)[C@H](CC(C)C)NC(=O)[C@H](CCN)NC(=O)[C@@H](CC(C)C)NC(=O)[C@H](CCCN)NC(=O)[C@H](CCCNC(N)=O)NC(=O)[C@H](Cc3ccc(-c4ccccc4)cc3)NC(=O)[C@H](C(C)C)NC2=O)c1 [Compound 2800] ({CH2CO}-NYD[Phe(3-Me)]V[Bip][Cit][Orn][dL][Dab]LV[Dap]CK[Aun]-OH; thioether N-14),84.6
6,CC(C)C[C@H]1NC(=O)[C@H](CCCN)NC(=O)[C@H](C(C)C)NC(=O)[C@H](Cc2ccc(-c3ccccc3)cc2)NC(=O)[C@H](C(C)C)NC(=O)[C@H](Cc2c[nH]c3ccccc23)NC(=O)[C@H](CC(=O)O)NC(=O)[C@H](Cc2ccc(OCC(=O)O)cc2)NC(=O)[C@H](CN)NC(=O)CSC[C@@H](C(=O)N[C@@H](CCCCN)C(=O)NCCCCCCCCCCC(=O)O)NC(=O)[C@H](CN)NC(=O)[C@H](C(C)C)NC(=O)[C@H](CC2CCCCC2)NC(=O)[C@H](Cc2cc[nH]c2)NC1=O [Compound 2801] ({CH2CO}-[Dap]Y(Carboxymethyl)DWV[Bip]V[Orn][dL][X10][Cha]V[Dap]CK[Aun]-OH; thioether N-14),327

# The next compounds have a lower IC50 than those just listed; values first:
row,IC50 [nM],SMILES
1,11.8,Cc1cccc(C[C@@H]2NC(=O)[C@H](CC(=O)O)NC(=O)[C@H](Cc3ccc(OCC(=O)O)cc3)NC(=O)[C@H](CCCNC(=N)N)NC(=O)CSC[C@@H](C(=O)N[C@@H](CCN)C(=O)NCCCCCCCCCCC(=O)O)NC(=O)[C@H](CCC(N)=O)NC(=O)[C@H](C(C)C)NC(=O)[C@H](CC3CCCCC3)NC(=O)[C@H](CCN)NC(=O)[C@@H](CC(C)C)NC(=O)[C@H](CCN)NC(=O)[C@H](CCCNC(N)=O)NC(=O)[C@H](Cc3ccc(-c4ccccc4)cc3)NC(=O)[C@H](C(C)C)NC2=O)c1 [Compound 2797] ({CH2CO}-RY(Carboxymethyl)D[Phe(3-Me)]V[Bip][Cit][Dab][dL][Dab][Cha]VQC[Dab][Aun]-OH; thioether N-14)
2,7.1,Cc1cccc(C[C@@H]2NC(=O)[C@H](CC(=O)O)NC(=O)[C@H](Cc3ccc(OCC(=O)O)cc3)NC(=O)[C@H](CCCNC(=N)N)NC(=O)CSC[C@@H](C(=O)N[C@@H](CCCN)C(=O)NCCCCCCCCCCC(=O)O)NC(=O)[C@H](CCC(N)=O)NC(=O)[C@H](C(C)C)NC(=O)[C@H](CC3CCCCC3)NC(=O)[C@H](CCN)NC(=O)[C@@H](CC(C)C)NC(=O)[C@H](CCN)NC(=O)[C@H](CCCNC(N)=O)NC(=O)[C@H](Cc3ccc(-c4ccccc4)cc3)NC(=O)[C@H](C(C)C)NC2=O)c1 [Compound 2798] ({CH2CO}-RY(Carboxymethyl)D[Phe(3-Me)]V[Bip][Cit][Dab][dL][Dab][Cha]VQC[Orn][Aun]-OH; thioether N-14)
3,20,Cc1cccc(C[C@@H]2NC(=O)[C@H](CC(=O)O)NC(=O)[C@H](Cc3ccc(OCC(=O)O)cc3)NC(=O)[C@H](CCCNC(=N)N)NC(=O)CSC[C@@H](C(=O)N[C@@H](CCCN)C(=O)NCCCCCCCCCCC(=O)O)NC(=O)[C@@H](CCC(N)=O)NC(=O)[C@H](C(C)C)NC(=O)[C@H](CC3CCCCC3)NC(=O)[C@H](CCN)NC(=O)[C@@H](CC(C)C)NC(=O)[C@H](CCN)NC(=O)[C@H](CCCNC(N)=O)NC(=O)[C@H](Cc3ccc(-c4ccccc4)cc3)NC(=O)[C@H](C(C)C)NC2=O)c1 [Compound 2799] ({CH2CO}-RY(Carboxymethyl)D[Phe(3-Me)]V[Bip][Cit][Dab][dL][Dab][Cha]V[dQ]C[Orn][Aun]-OH; thioether N-14)
4,15.4,Cc1cccc(C[C@@H]2NC(=O)[C@H](CC(=O)O)NC(=O)[C@H](Cc3ccc(OCC(=O)O)cc3)NC(=O)[C@H](CCCNC(=N)N)NC(=O)CSC[C@@H](C(=O)N[C@@H](CCCCN)C(=O)NCCCCCCCCCCC(=O)O)NC(=O)[C@H](CN)NC(=O)[C@H](C(C)C)NC(=O)[C@H](CC3CCCCC3)NC(=O)[C@H](CCN)NC(=O)[C@@H](CC(C)C)NC(=O)[C@H](CCN)NC(=O)[C@H](CCCNC(N)=O)NC(=O)[C@H](Cc3ccc(-c4ccccc4)cc3)NC(=O)[C@H](C(C)C)NC2=O)c1 [Compound 2802] ({CH2CO}-RY(Carboxymethyl)D[Phe(3-Me)]V[Bip][Cit][Dab][dL][Dab][Cha]V[Dap]CK[Aun]-OH; thioether N-14)
